Measured values published in US20260285853A1, “COMPOUNDS AND METHODS FOR MODULATING SPLICING” (REMIX THERAPEUTICS INC., priority 2023, published 2026).
Where two headings read alike, the source gives them in different places.

Assays:
Type in all cases: cell-based
HTT mRNA [1] = assay: Splicing RT-qPCR assay (THP), Table 2A
MYB mRNA [2] = assay: Splicing RT-qPCR assay (THP), Table 2A
HTT mRNA [3] = assay: Gene panel canonical junction qPCR assay, decrease in CJ mRNA, Table 3
How it was run: (§1)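 A673 cells were plated, left to adhere for 24 h, then dosed; K562 cells were plated in 96- or 384-well format and dosed directly. Both were incubated 24 h at 37 °C with an 11-point 3-fold series (top 10 uM final). Canonical junction mRNA was then read by cDNA synthesis and qPCR.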

MYB mRNA [4] = assay: as above
How it was run: as §1

[5] = tested on: SH-SY5Y (human neuroblastoma) cells; assay: Cell viability, Cell Titer Glo 2.0 assay; details: read-out: Viability SHSY5Y.3 GI50
How it was run: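 SH-SY5Y neuroblastoma cells are exposed to test compounds for 72 hours at 37 °C and 5% CO2, with final DMSO held at 0.1%. Cell viability is then measured with the CellTiter-Glo 2.0 assay.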

[6] = Table 2A, THP, HTT alternative junction (AJ) mRNA, read-out: HTT AJ (AC50, increase in alternative junction mRNA)
[7] = Table 2A, THP, HTT canonical junction (CJ) mRNA, read-out: HTT CJ (IC50, decrease in canonical junction mRNA)
[8] = Table 2A, THP, MYB alternative junction (AJ) mRNA, read-out: MYB AJ (AC50, increase in alternative junction mRNA)
[9] = Table 2A, THP, MYB canonical junction (CJ) mRNA, read-out: MYB CJ (IC50, decrease in canonical junction mRNA)
[10] = decrease in CJ mRNA levels, canonical junction qPCR, gene panel
[11] = Table 2A (THP), AJ mRNA increase, read-out: HTT AJ (increase in alternative junction mRNA, AC50)
[12] = Table 2A (THP), CJ mRNA decrease, read-out: HTT CJ (decrease in canonical junction mRNA, IC50)
[13] = Table 2A (THP), AJ mRNA increase, read-out: MYB AJ (increase in alternative junction mRNA, AC50)
[14] = Table 2A (THP), CJ mRNA decrease, read-out: MYB CJ (decrease in canonical junction mRNA, IC50)
[15] = decrease in canonical junction (CJ) mRNA, gene panel qPCR, Table 3

Row | Structure (SMILES) | AC50 (HTT mRNA [1]; [6]) | IC50 (HTT mRNA [1]; [7]) | AC50 (MYB mRNA [2]; [8]) | IC50 (MYB mRNA [2]; [9]) | IC50 (HTT mRNA [3]; [10]) | IC50 (MYB mRNA [4]; [10]) | GI50 [5] | AC50 (HTT mRNA [1]; [11]) | IC50 (HTT mRNA [1]; [12]) | AC50 (MYB mRNA [2]; [13]) | IC50 (MYB mRNA [2]; [14]) | IC50 (HTT mRNA [3]; [15]) | IC50 (MYB mRNA [4]; [15])
1 | COc1nc2c(C(=O)Nc3cc(F)c4nn(C)cc4c3)ccc(N3CCN4CCC[C@H]4C3)c2s1 [Compound 745, 7-[(8aS)-3,4,6,7,8,8a-hexahydro-1H-pyrrolo[1,2-a]pyrazin-2-yl]-N-(7-fluoro-2-methyl-indazol-5-yl)-2-methoxy-1,3-benzothiazole-4-carboxamide] | 0.1 to 1 µM | 0.1 to 1 µM | < 0.1 µM | < 0.1 µM | 0.1 to 1 µM | < 0.1 µM | 0.1 to 1 µM | – | – | – | – | – | –
2 | CCNC1CCN(c2cc(Br)c(C(=O)Nc3cn4cc(C)nc4c(F)c3OC)c3nn(C)cc23)CC1 [Compound 723] | 0.1 to 1 µM | 0.1 to 1 µM | < 0.1 µM | < 0.1 µM | 0.1 to 1 µM | < 0.1 µM | 0.1 to 1 µM | – | – | – | – | – | –
3 | CCNC1CCN(c2ccc(C(=O)Nc3cc(CC(=O)NC)c4nc(C)cn4c3)c3nn(C)cc23)CC1 [Compound 341, 4-(4-(ethylamino)piperidin-1-yl)-2-methyl-N-(2-methyl-8-(2-(methylamino)-2-oxoethyl)imidazo[1,2-a]-pyridin-6-yl)-2H-indazole-7-carboxamide bis(2,2,2-trifluoroacetate)] | – | – | – | – | – | – | > 10 µM | > 10 µM | 1 to 10 µM | 1 to 10 µM | > 10 µM | 1 to 10 µM | > 10 µM
4 | Cc1cn2cc(NC(=O)c3ccc(N4CCC(NC5CC5)CC4)c4cn(C)nc34)nc2c(CNC(=N)N)n1 [Compound 754, 4-(4-(cyclopropylamino)piperidin-1-yl)-N-(8-(guanidinomethyl)-6-methylimidazo[1,2-a]pyrazin-2-yl)-2-methyl-2H-indazole-7-carboxamide bis(2,2,2-trifluoroacetate)] | > 10 µM | > 10 µM | > 10 µM | > 10 µM | > 10 µM | > 10 µM | > 10 µM | – | – | – | – | – | –
5 | CNCC1CCN(c2ccc(C(=O)Nc3cn4cc(C)nc(C)c4n3)c3nn(C)cc23)C1 (stereo not drawn) [Compound 527] | – | – | – | – | – | – | 0.1 to 1 µM | 0.1 to 1 µM | 0.1 to 1 µM | 0.1 to 1 µM | 0.1 to 1 µM | 0.1 to 1 µM | 0.1 to 1 µM
6 | CN(C)c1ccc(C(=O)Nc2cc(CNS(C)(=O)=O)c3nn(C)cc3c2)c2nn(C)cc12 [Compound 841] | > 10 µM | > 10 µM | > 10 µM | > 10 µM | > 10 µM | > 10 µM | > 10 µM | – | – | – | – | – | –
7 | Cc1cn2cc(NC(=O)c3ccc(N4CC5CNCC5C4)c4cn(C)nc34)nc2c(C)n1 (stereo not drawn) [Compound 526] | – | – | – | – | – | – | 1 to 10 µM | 1 to 10 µM | 1 to 10 µM | 1 to 10 µM | 1 to 10 µM | 1 to 10 µM | 1 to 10 µM
8 | CCNC1CCN(c2cc(F)c(C(=O)Nc3cn4c(N)c(C)nc4c(F)c3OC)c3nn(C)cc23)CC1 [Compound 310, N-(3-amino-8-fluoro-7-methoxy-2-methyl-imidazo[1,2-a]pyridin-6-yl)-4-[4-(ethylamino)-1-piperidyl]-6-fluoro-2-methyl-indazole-7-carboxamide] | – | – | – | – | – | – | > 10 µM | > 10 µM | > 10 µM | > 10 µM | > 10 µM | > 10 µM | > 10 µM
9 | CCNC1CCN(c2cc(F)c(C(=O)Nc3cn4cc(C)nc(OC)c4n3)c3nn(C)cc23)CC1 [Compound 351, 4-[4-(ethyl-amino)-1-piperidyl]-6-fluoro-N-(8-methoxy-6-methyl-imidazo[1,2-a]-pyrazin-2-yl)-2-methyl-indazole-7-carboxamide] | – | – | – | – | – | – | 1 to 10 µM | > 10 µM | > 10 µM | > 10 µM | 1 to 10 µM | > 10 µM | 1 to 10 µM
10 | Cn1cc2cc(NC(=O)c3ccc(N4CCC(NC5CC5)CC4)c4cn(C)nc34)c(C(F)(F)F)cc2n1 [Compound 476, 4-[4-(cyclopropyl-amino)-1-piperidyl]-2-methyl-N-[2-methyl-6-(trifluoromethyl)-indazol-5-yl]indazole-7-carboxamide] | – | – | – | – | – | – | > 10 µM | > 10 µM | > 10 µM | 1 to 10 µM | 1 to 10 µM | > 10 µM | 1 to 10 µM
11 | Cc1cn2cc(NC(=O)c3ccc(N4CCC(NCC5CC5)CC4)c4cn(C)nc34)nc2c(C)n1 [Compound 575] | – | – | – | – | – | – | 1 to 10 µM | > 10 µM | > 10 µM | 0.1 to 1 µM | 1 to 10 µM | > 10 µM | 1 to 10 µM
12 | Cn1cc2cc(NC(=O)c3ccc(N4CCC(NC5CC5)CC4)c4cn(C)nc34)c(F)cc2n1 [Compound 459, 4-[4-(cyclopropylamino)-1-piperidyl]-N-(6-fluoro-2-methyl-indazol-5-yl)-2-methyl-indazole-7-carboxamide] | – | – | – | – | – | – | 1 to 10 µM | > 10 µM | 1 to 10 µM | 0.1 to 1 µM | 0.1 to 1 µM | 1 to 10 µM | 0.1 to 1 µM
13 | COc1cc2c(N3C[C@H](C)N[C@@H](C)C3)ccc(C(=O)Nc3cc(F)c4nn(C)cc4c3)c2o1 [Compound 790] | 0.1 to 1 µM | 1 to 10 µM | < 0.1 µM | < 0.1 µM | 1 to 10 µM | < 0.1 µM | 0.1 to 1 µM | – | – | – | – | – | –
14 | CCNC1CCN(c2ccc(C(=O)Nc3cc4cn(C)nc4cc3OC)c3nn(C)cc23)C(C)(C)C1 (stereo not drawn) [Compound 737, 4-[4-(ethylamino)-2,2-dimethyl-1-piperidyl]-N-(6-methoxy-2-methyl-indazol-5-yl)-2-methyl-indazole-7-carboxamide] | > 10 µM | > 10 µM | > 10 µM | > 10 µM | > 10 µM | > 10 µM | 1 to 10 µM | – | – | – | – | – | –
15 | CCNC1CCN(c2ccc(C(=O)Nc3cn4cc(C)nc(C)c4c3F)c3nn(C)cc23)CC1 [Compound 523, 4-[4-(ethylamino)-1-piperidyl]-N-(8-fluoro-1,3-dimethyl-pyrrolo[1,2-a]pyrazin-7-yl)-2-methyl-indazole-7-carboxamide] | – | – | – | – | – | – | 1 to 10 µM | 1 to 10 µM | 1 to 10 µM | 1 to 10 µM | 1 to 10 µM | 1 to 10 µM | 1 to 10 µM
16 | Cc1cn2cc(NC(=O)c3ccc(N(C)C)c4cn(C)nc34)nc2c(CNS(C)(=O)=O)n1 [Compound 792] | 1 to 10 µM | 1 to 10 µM | 1 to 10 µM | 1 to 10 µM | 1 to 10 µM | 1 to 10 µM | 1 to 10 µM | – | – | – | – | – | –
17 | CCNC1CCN(c2ccc(C(=O)Nc3cc(Oc4ccccc4C#N)c4nc(C)cn4c3)c3nn(C)cc23)CC1 [Compound 315, N-[8-(2-cyano-phenoxy)-2-methyl-imidazo[1,2-a]pyridin-6-yl]-4-[4-(ethylamino)-1-piperidyl]-2-methyl-indazole-7-carboxamide] | – | – | – | – | – | – | 1 to 10 µM | > 10 µM | > 10 µM | 1 to 10 µM | > 10 µM | > 10 µM | > 10 µM
18 | CCNCC1CN(c2ccc(C(=O)Nc3cn4cc(C)nc(C)c4n3)c3nn(C)cc23)C1 [Compound 494, N-(6,8-dimethylimidazo[1,2-a]-pyrazin-2-yl)-4-[3-(ethylaminomethyl)azetidin-1-yl]-2-methyl-indazole-7-carboxamide] | – | – | – | – | – | – | > 10 µM | > 10 µM | > 10 µM | > 10 µM | > 10 µM | > 10 µM | > 10 µM
